Source: ChEMBL document CHEMBL1151857, “A new psoralen derivative with enlarged antiproliferative properties” (Bioorg Med Chem Lett, 2009)
Calls of active or inactive are those of the source. No cut-off for these calls is given here.

What was measured:
[1] = test system: HeLa; assay: Photo-antiproliferative activity against human HeLa cells under dark condition; format: functional, cell-based
[2] = test system: Nucleic Acid; assay: Binding affinity to DNA assessed as intercalation between base pairs by linear flow dichroism spectroscopy; format: nucleic-acid assay
[3] = test system: HeLa; assay: Photo-antiproliferative activity against human HeLa cells exposed to 365 nm, 0.793 Jcm'-2 UVA light; format: functional, cell-based; details: light or radiation study
[4] = test system: Zone of skin; assay: Phototoxicity in depilated guinea pig skin assessed as formation of erythema; format: tissue-based, Cavia porcellus

In the case of `CN(C)CCCOc1c2oc(=O)ccc2cc2c1oc1nnccc12`, the IC50 [1] is reported as 13.5 µM, the Activity [2] is reported as “Active” and the IC50 [3] is reported as 2.9 µM.

With `COc1c2occc2cc2ccc(=O)oc12` [METHOXSALEN] the IC50 [1] was over 20 µM and the Activity [4] was “Toxic”.
